System: Fet-J cells chronically infected with feline immunodeficiency virus (FIV)
Experiment: Cell density of FIV-infected Fet-J suspension cultures supplemented with antibiotics (trypan blue exclusion on hemacytometer)
Format: cell-based
Conditions: for Cell density Day 1 / Cell density Day 2 / Cell density Day 3 / Cell density Day 4 / Cell density Day 5: antibiotic 30 micrograms/mL in serum free media, planted at 3×10^5 viable cells/mL; for Effect on growth / cell density compared with cultures without antibiotic (in words): antibiotic 30 micrograms/mL, Days 1-5
Experimental: In this example, Fet-J cells chronically infected with feline immunodeficiency virus (FIV) were grown in serum free media such as modified DMEM:F12 Media or AIM V media, supplemented with 2.5 mg/mL of ALBUMAX®, which is derived from BSA. Cells were grown in suspension in Erlenmeyer flasks on a rotary shaker at 150 rpm at 37° C. Cells were planted at a cell density of 3×10^5 viable cells/mL. Cell densities were determined by trypan blue exclusion on hemacytometer. Gp 120 expression determination was accomplished by enzyme linked immunosorbent assay (ELISA) using anti-FIV Gp 120 monoclonal antibodies. The antibiotics assessed for FIV supplementation included gentamycin, neomycin and polymixin B. Media were spiked with respective antibiotics at a concentration of 30 micrograms/mL. Cell densities were determined on a 24 hour basis by the method described above.

neomycin
Cell density Day 1: 4.7 × 10^5 cell/mL
Cell density Day 2: 7.8 × 10^5 cell/mL
Cell density Day 3: 1.2 × 10^6 cell/mL
Cell density Day 4: 1.3 × 10^6 cell/mL
Cell density Day 5: 1.8 × 10^6 cell/mL
Effect on growth / cell density compared with cultures without antibiotic (in words): best overall growth and increase in cell densities

gentamycin
Cell density Day 1: 2.4 × 10^5 cell/mL
Cell density Day 2: 3.2 × 10^5 cell/mL
Cell density Day 3: 6.5 × 10^5 cell/mL
Cell density Day 4: 1.1 × 10^6 cell/mL
Cell density Day 5: 1.1 × 10^6 cell/mL
Effect on growth / cell density compared with cultures without antibiotic (in words): no significant effect

polymixin B
Cell density Day 1: 2.9 × 10^5 cell/mL
Cell density Day 2: 4.6 × 10^5 cell/mL
Cell density Day 3: 5.8 × 10^5 cell/mL
Cell density Day 4: 6.6 × 10^6 cell/mL
Cell density Day 5: 6.6 × 10^5 cell/mL
Effect on growth / cell density compared with cultures without antibiotic (in words): suppressed cell density
